This note sets out measurements from DBAASP.

Holding throughout (test): ≥ marks a high value that may be exact or a test limit, other limits are often not marked, values filed in µg/mL are converted to µM
Assay [1] deals with Escherichia coli ATCC 2592.
Assay [2] deals with Pseudomonas aeruginosa ATCC 9027.
In assay [3] the test system is Candida albicans ATCC 36232.
Assay [4] concerns Micrococcus luteus ATCC 9341.
Assay [5] has as its system Staphylococcus aureus ATCC 6538.
Assay [6] deals with Staphylococcus aureus.
Assay [7] relates to Proteus vulgaris ATCC 6380.
Assay [8] concerns Staphylococcus epidermidis ATCC 12228.
The subject of assay [9] is Lacticaseibacillus rhamnosus 7469.
Assay [10] relates to Candida tropicalis CGMCC 2.1975.
Assay [11] deals with Staphylococcus aureus ATCC 29213.
The subject of assay [12] is Candida albicans CGMCC 2.2086.
Assay [13] concerns Salmonella enterica subsp. enterica serovar Typhimurium C77-31.
Assay [14] deals with Candida parapsilosis CGMCC 2.3989.
For assay [15], the system named is Staphylococcus aureus ATCC 25923.
Assay [16] has as its system Salmonella enterica subsp. enterica serovar Typhimurium ATCC 14028.
The test system of assay [17] is Lactiplantibacillus plantarum 8014.
The subject of assay [18] is Pseudomonas aeruginosa PAO1.
Assay [19] concerns Pseudomonas aeruginosa PA7.
Assay [20] relates to Escherichia coli MG1655.
Assay [21] deals with Staphylococcus aureus NCTC 8325.
For assay [22], the system named is Pseudomonas aeruginosa PA287.
The test system of assay [23] is Escherichia coli K-12.
The subject of assay [24] is Pseudomonas aeruginosa PA214.

SMILES strings stand for the structures. Converted amounts (≈) assume the structure as drawn. “And” between values parts separate entries of the source, which are not always exact repeats. Identical values can stand only once.

In general, MIC refers to the least concentration at which growth counts as inhibited. The low end stands for a more susceptible organism, the high end for a less susceptible organism. On to `CC[C@H](C)[C@H](NC(=O)[C@H](CCCCN)NC(=O)[C@@H]1CCCN1C(=O)[C@H](CC(C)C)NC(=O)[C@H](Cc1ccccc1)NC(=O)[C@H](CC(N)=O)NC(=O)[C@H](C)NC(=O)[C@H](C)NC(=O)[C@H](CC(C)C)NC(=O)CNC(=O)[C@H](C)NC(=O)[C@H](CC(C)C)NC(=O)[C@H](CC(C)C)NC(=O)[C@@H]1CCCN1C(=O)[C@H](CC(C)C)NC(=O)[C@@H](N)Cc1ccccc1)C(=O)N[C@@H](Cc1ccccc1)C(=O)N[C@@H](CS)C(=O)N[C@@H](CCCCN)C(=O)N[C@H](C(=O)N[C@H](C(=O)N[C@@H](CCCN=C(N)N)C(=O)N[C@@H](CCCCN)C(=O)N[C@@H](CS)C(N)=O)[C@@H](C)O)[C@@H](C)CC` [FLPLLAGLAANFLPKIFCKITRKC], for which the MIC came out at 2.33 µM (≈ 6.25 µg/mL) in assay [1]; 1.16 µM (≈ 3.12 µg/mL) in assay [2]; 1.16 µM (≈ 3.12 µg/mL) in assay [3]; 1.16 µM (≈ 3.12 µg/mL) in [4]; 2.33 µM (≈ 6.25 µg/mL) in assay [5]; 2.33 µM (≈ 6.25 µg/mL) in assay [6]. The MIC in assay [7] is not below 37.3 µM.
Take `CC[C@H](C)[C@H](N)C(=O)N[C@@H](Cc1cnc[nH]1)C(=O)N[C@@H](Cc1cnc[nH]1)C(=O)N[C@H](C(=O)N[C@@H](Cc1cnc[nH]1)C(=O)N[C@@H](Cc1cnc[nH]1)C(=O)N[C@H](C(=O)N[C@H](C(=O)N[C@@H](Cc1cnc[nH]1)C(=O)N[C@@H](Cc1cnc[nH]1)C(=O)N[C@H](C(=O)N[C@@H](Cc1cnc[nH]1)C(=O)N[C@@H](Cc1cnc[nH]1)C(=O)N[C@H](C(=O)N[C@H](C(=O)N[C@@H](Cc1cnc[nH]1)C(=O)N[C@@H](Cc1cnc[nH]1)C(=O)N[C@H](C(=O)N[C@@H](Cc1cnc[nH]1)C(=O)N[C@@H](Cc1cnc[nH]1)C(=O)N[C@H](C(=O)N[C@H](C(=O)N[C@@H](Cc1cnc[nH]1)C(=O)N[C@@H](Cc1cnc[nH]1)C(=O)N[C@H](C(=O)N[C@@H](Cc1cnc[nH]1)C(=O)N[C@@H](Cc1cnc[nH]1)C(=O)N[C@H](C(N)=O)[C@@H](C)CC)[C@@H](C)CC)[C@@H](C)CC)[C@@H](C)CC)[C@@H](C)CC)[C@@H](C)CC)[C@@H](C)CC)[C@@H](C)CC)[C@@H](C)CC)[C@@H](C)CC)[C@@H](C)CC` [IHHIHHIIHHIHHIIHHIHHIIHHIHHI]: the MIC is more than 64 µM in [8]; not below 64 µM in assay [9]; 8 µM (≈ 28.6 µg/mL) in assay [10]; more than 64 µM in assay [11]; not below 64 µM in [12]; not below 64 µM in assay [13]. The MIC in assay [14] is not below 64 µM; in assay [15], more than 64 µM; in [16], more than 64 µM; in [17], 2 µM (≈ 7.14 µg/mL).
For `CC[C@H](C)[C@H](N)C(=O)N[C@@H](Cc1cnc[nH]1)C(=O)N[C@@H](Cc1cnc[nH]1)C(=O)N[C@H](C(=O)N[C@@H](Cc1cnc[nH]1)C(=O)N[C@@H](Cc1cnc[nH]1)C(=O)N[C@H](C(=O)N[C@H](C(=O)N[C@@H](Cc1cnc[nH]1)C(=O)N[C@@H](Cc1cnc[nH]1)C(=O)N[C@H](C(=O)N[C@@H](Cc1cnc[nH]1)C(=O)N[C@@H](Cc1cnc[nH]1)C(=O)N[C@H](C(N)=O)[C@@H](C)CC)[C@@H](C)CC)[C@@H](C)CC)[C@@H](C)CC)[C@@H](C)CC` [IHHIHHIIHHIHHI], the minimum inhibitory concentration (MIC) in assay [8] is more than 64 µM; in assay [9] it was not below 64 µM; in assay [10], 1 µM (≈ 1.79 µg/mL); in [11], more than 64 µM; in [12], 8 µM (≈ 14.3 µg/mL); in assay [14], 4 µM (≈ 7.17 µg/mL). For the same molecule, the MIC in assay [15] was more than 64 µM; in assay [16] it was 32 µM and 64 µM; in assay [17], not below 64 µM.
Regarding `CC[C@H](C)[C@H](N)C(=O)N[C@@H](CCCCN)C(=O)N[C@H](C(=O)N1CCC[C@H]1C(=O)N1CCC[C@H]1C(=O)N[C@H](C(=O)N[C@H](C(=O)N[C@@H](CCCCN)C(=O)N[C@@H](CC(=O)O)C(=O)N[C@H](C(=O)N[C@@H](CC(C)C)C(=O)N[C@@H](CCCCN)C(=O)N[C@@H](CCCCN)C(=O)N[C@H](C(=O)N[C@@H](C)C(=O)N[C@@H](CCCCN)C(=O)NCC(=O)N[C@H](C(=O)N[C@@H](CC(C)C)C(=O)N[C@@H](CO)C(=O)N[C@H](C(=O)N[C@H](C(=O)N[C@@H](C)C(=O)N[C@@H](CC(=O)O)C(=O)N[C@@H](C)C(=O)N[C@@H](CC(C)C)C(=O)N[C@@H](CO)C(=O)N[C@@H](CCCCN)C(=O)N[C@@H](CO)C(=O)O)C(C)C)[C@@H](C)O)C(C)C)C(C)C)[C@@H](C)O)C(C)C)[C@@H](C)CC)[C@@H](C)CC` [IKIPPIVKDTLKKVAKGVLSTVADALSKS], the minimal inhibitory concentration (MIC) was 5.66 µM (≈ 17.1 µg/mL) in assay [18], 8 µM (≈ 24.2 µg/mL) in assay [19], 1 µM (≈ 3.02 µg/mL) in assay [20] and not below 362 µM in assay [21].
On to `C[C@H](NC(=O)[C@H](C)NC(=O)[C@H](Cc1ccccc1)NC(=O)[C@H](C)NC(=O)[C@H](CCCCN)NC(=O)[C@H](C)NC(=O)[C@H](Cc1c[nH]c2ccccc12)NC(=O)[C@H](C)NC(=O)[C@H](CCCCN)NC(=O)[C@H](C)NC(=O)[C@H](Cc1ccccc1)NC(=O)[C@H](C)NC(=O)[C@H](C)NC(=O)[C@H](CCCCN)NC(=O)[C@H](CCCCN)NC(=O)[C@H](CCCCN)NC(=O)[C@@H](N)CCCCN)C(N)=O` [KKKKAAFAKAWAKAFAA], for which the minimal inhibitory concentration (MIC) was not below 50 µM in [22], 50 µM (≈ 91.8 µg/mL) in [18], 12.5 µM (≈ 22.9 µg/mL) in [23] and not below 50 µM in [24].
Consider `C[C@H](NC(=O)[C@H](C)NC(=O)[C@H](Cc1ccccc1)NC(=O)[C@H](C)NC(=O)[C@H](C)NC(=O)[C@H](Cc1c[nH]c2ccccc12)NC(=O)[C@H](C)NC(=O)[C@H](CCCCN)NC(=O)[C@H](C)NC(=O)[C@H](Cc1ccccc1)NC(=O)[C@H](C)NC(=O)[C@H](C)NC(=O)[C@H](CCCCN)NC(=O)[C@H](CCCCN)NC(=O)[C@H](CCCCN)NC(=O)[C@H](CCCCN)NC(=O)[C@@H](N)CCCCN)C(N)=O` [KKKKKAAFAKAWAAFAA], for which the MIC is not below 50 µM in [22], 25 µM (≈ 45.9 µg/mL) in assay [18], 6.3 µM (≈ 11.6 µg/mL) in assay [23] and 25 µM (≈ 45.9 µg/mL) in assay [24].
`CC[C@H](C)[C@H](NC(=O)[C@H](CCC(=O)O)NC(=O)[C@H](CCCCN)NC(=O)[C@H](C)NC(=O)[C@@H](NC(=O)[C@H](CCCCN)NC(=O)[C@H](CCCCN)NC(=O)[C@H](CC(C)C)NC(=O)[C@@H](NC(=O)[C@H](CC(=O)O)NC(=O)[C@H](CCCN=C(N)N)NC(=O)[C@@H](NC(=O)[C@H](Cc1ccccc1)NC(=O)CNC(=O)[C@@H]1CCCN1C(=O)[C@@H](NC(=O)[C@H](CCCCN)NC(=O)[C@@H](N)CC(C)C)[C@@H](C)CC)C(C)C)[C@@H](C)O)C(C)C)C(=O)N[C@@H](Cc1ccccc1)C(=O)N[C@@H](CO)C(=O)N[C@@H](C)C(=O)N[C@H](C(=O)N[C@H](C(=O)NCC(=O)N[C@@H](C)C(=O)N[C@H](C(=O)N[C@H](C(=O)N[C@@H](CCC(N)=O)C(=O)N[C@@H](CO)C(=O)O)[C@@H](C)O)C(C)C)[C@@H](C)O)C(C)C` [LKIPGFVRDTLKKVAKEIFSAVTGAVTQS]: the MIC in assay [18] was 4 µM (≈ 12.4 µg/mL); in assay [19] it was 4 µM (≈ 12.4 µg/mL); in [20] it was 1 µM (≈ 3.1 µg/mL); in assay [21], not below 128 µM.
